The values below come from publication PMC6017874, “Synthesis of New C- and N-β-D-Glucopyranosyl Derivatives of Imidazole, 1,2,3-Triazole and Tetrazole, and Their Evaluation as Inhibitors of Glycogen Phosphorylase” (Molecules : A Journal of Synthetic Chemistry and Natural …, 2018).

The target in series [1] is T1, rabbit muscle glycogen phosphorylase b (RMGPb) (Oryctolagus cuniculus, UniProt P00489).
T1 sequence (P00489 1-843): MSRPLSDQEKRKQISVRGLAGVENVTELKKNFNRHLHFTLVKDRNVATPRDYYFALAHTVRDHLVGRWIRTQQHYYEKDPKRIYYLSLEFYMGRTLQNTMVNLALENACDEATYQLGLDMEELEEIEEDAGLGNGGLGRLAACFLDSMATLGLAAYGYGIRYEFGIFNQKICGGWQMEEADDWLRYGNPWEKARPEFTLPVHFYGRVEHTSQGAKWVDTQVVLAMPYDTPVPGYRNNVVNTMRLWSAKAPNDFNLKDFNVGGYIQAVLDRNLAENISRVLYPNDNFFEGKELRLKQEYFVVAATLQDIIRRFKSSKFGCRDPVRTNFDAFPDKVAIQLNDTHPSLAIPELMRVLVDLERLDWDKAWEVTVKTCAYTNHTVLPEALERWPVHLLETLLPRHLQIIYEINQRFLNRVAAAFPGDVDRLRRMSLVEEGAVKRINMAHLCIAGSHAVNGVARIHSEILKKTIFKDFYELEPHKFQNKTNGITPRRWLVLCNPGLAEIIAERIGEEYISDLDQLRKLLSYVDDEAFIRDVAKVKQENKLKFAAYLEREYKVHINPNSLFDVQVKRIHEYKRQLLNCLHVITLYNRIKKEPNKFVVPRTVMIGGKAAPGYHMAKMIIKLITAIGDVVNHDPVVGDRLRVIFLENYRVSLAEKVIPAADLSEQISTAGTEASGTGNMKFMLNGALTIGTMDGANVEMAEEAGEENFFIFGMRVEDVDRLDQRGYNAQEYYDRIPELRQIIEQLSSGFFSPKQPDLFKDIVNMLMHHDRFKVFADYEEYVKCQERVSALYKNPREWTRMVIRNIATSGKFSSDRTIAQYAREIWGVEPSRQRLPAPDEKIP
The series can be described thus: Inhibition of rabbit muscle glycogen phosphorylase b (enzyme kinetic assay). Details: key to Inhibition: N.I.: no inhibition at 625 μM concentration. The conditions noted are these: for Inhibition: N.I. = no inhibition at 625 μM concentration; for inhibition of RMGPb (in words): investigated concentration range, max 625 μM. It counts as biochemical. On the procedure:
The new compounds were assayed against rabbit muscle glycogen phosphorylase b enzyme (RMGPb) as described earlier and the results are collected in Table 5. The inefficiency of C-glucopyranosyl 1,2,3-triazoles 5 (entries 4–6) as compared to the micromolar inhibition of the N-glucopyranosyl counterparts II in Table 2 came as a surprise, since the size of the heterocycle and the position of the H-bond donor and acceptor sites of the ring must not have been altered by the interchange of the substituents. A comparison of the inhibitory efficiency of N-benzoyl-β-D-gluco-pyranosylamine Ib (entry 1) with its “reversed” counterpart N-phenyl-2,6-anhydro-D-glycero-D-gulo-heptonamide 20 (shown in entry 3) results in a ratio of 38–67 (~53 as an average).

The target in series [2] is T1, rabbit muscle glycogen phosphorylase b (RMGPb). Conditions: cited from earlier work.

Read-outs that look alike come from different tables or passages of the source.

For `OC[C@H]1O[C@@H](c2cn(-c3ccccc3)nn2)[C@H](O)[C@@H](O)[C@@H]1O` [5a, 1-Phenyl-4-(β-D-glucopyranosyl)-1H-1,2,3-triazole], the Inhibition entry in series [1] (RMGPb) is “N.I”. Besides, the Ki in series [1] (RMGPb, inhibition constants of IIb multiplied by the average factor ~53, read-out: predicted inhibition constant) is 7900 to 8500 µM.
As for `Cc1nnc([C@@H]2O[C@H](CO)[C@@H](O)[C@H](O)[C@H]2O)o1` [IIIa], the Ki in series [2] was 212 µM.
As for `OC[C@H]1O[C@@H](n2nnnc2-c2ccccc2)[C@H](O)[C@@H](O)[C@@H]1O` [19a, 5-Phenyl-1-(β-D-glucopyranosyl)-1H-tetrazole], the Inhibition entry in series [1] (RMGPb) was “N.I”.
Regarding `OC[C@H]1OC(c2nnn[nH]2)[C@H](O)[C@@H](O)[C@@H]1O` (some centres unmarked) [VIII, 5-Glucosyltetrazole], the “inhibition at 625 μM (in words)” value in series [2] (RMGPb) is “No inh. at 625 μM [35]”. The “inhibition of RMGPb (in words)” value in series [2] was “inactive”.
For `Cn1nnnc1[C@@H]1O[C@H](CO)[C@@H](O)[C@H](O)[C@H]1O` [14e, 1-Methyl-5-(β-D-glucopyranosyl)-1H-tetrazole], in series [1] (RMGPb), the Inhibition entry is recorded as “N.I”.
As to `OC[C@H]1O[C@@H](c2noc(-c3ccccc3)n2)[C@H](O)[C@@H](O)[C@@H]1O` [IVb], in series [2] (RMGPb), the “inhibition at 625 μM” value was 10% at 625 μM [38].
`Cn1nnc([C@@H]2O[C@H](CO)[C@@H](O)[C@H](O)[C@H]2O)n1` [13e, 2-Methyl-5-(β-D-glucopyranosyl)-2H-tetrazole]: the Inhibition result in series [1] (RMGPb) was “N.I”.
The same measure, in the same setting: in the case of `OC[C@H]1O[C@@H](c2cn(-c3cccc4ccccc34)nn2)[C@H](O)[C@@H](O)[C@@H]1O` [5c, 1-(Naphthalen-1-yl)-4-(β-D-glucopyranosyl)-1H-1,2,3-triazole] it was “N.I”.
For `OC[C@H]1O[C@@H](n2cnc(-c3ccccc3)c2)[C@H](O)[C@@H](O)[C@@H]1O` [compound 8, 1-(β-D-Glucopyranosyl)-4-phenyl-1H-imidazole], the melting point (usually the temperature, or range, at which the solid turns liquid) was in the range of 273 to 274 °C. Besides, the Inhibition result in series [1] (RMGPb) is on record as “N.I”. In addition, the “inhibition of RMGPb (in words)” value in series [1] is recorded as “non-inhibitory”.
In the case of `OC[C@H]1O[C@@H](n2nnc(-c3ccccc3)n2)[C@H](O)[C@@H](O)[C@@H]1O` [18a, 5-Phenyl-2-(β-D-glucopyranosyl)-2H-tetrazole], half-maximal inhibition in series [1] (RMGPb) (IC50) required 600 µM. Besides, in series [1] (RMGPb, calculated from IC50 by the Cheng-Prusoff equation, read-out: calculated Ki), the Ki is 327 µM. The “inhibition of RMGPb (in words)” value in series [1] is listed as “very weak inhibition”.
With `Cc1nc([C@@H]2O[C@H](CO)[C@@H](O)[C@H](O)[C@H]2O)no1` [IVa], the “inhibition at 625 μM (in words)” value in series [2] (RMGPb) was “No inh. at 625 μM [38]”.
Take `Cc1nnn([C@@H]2O[C@H](CO)[C@@H](O)[C@H](O)[C@H]2O)n1` [18e, 5-Methyl-2-(β-D-glucopyranosyl)-2H-tetrazole]: the Inhibition result in series [1] (RMGPb) is “N.I”.
`O=C(Nc1ccccc1)[C@@H]1O[C@H](CO)[C@@H](O)[C@H](O)[C@H]1O` [compound 20, N-phenyl-2,6-anhydro-D-glycero-D-gulo-heptonamide, reference compound]: the “average ratio of inhibitory efficiency of Ib to its reversed counterpart 20” value in series [1] (RMGPb, average of the 38–67 ratio) is on record as ~ 53. Further, the “ratio of inhibitory efficiency of Ib to its reversed counterpart 20” value in series [1] (RMGPb, from literature Ki values of Ib and 20) is recorded as 38–67. Further, in series [2] (RMGPb), the Ki is 5400 µM.
For `OC[C@H]1O[C@@H](c2nnn(-c3ccccc3)n2)[C@H](O)[C@@H](O)[C@@H]1O` [13a, 2-Phenyl-5-(β-D-glucopyranosyl)-2H-tetrazole], the Inhibition entry in series [1] (RMGPb) is given as “N.I”.
The compound `OC[C@H]1O[C@@H](c2cn(-c3ccc4ccccc4c3)nn2)[C@H](O)[C@@H](O)[C@@H]1O` [5b, 1-(Naphthalen-2-yl)-4-(β-D-glucopyranosyl)-1H-1,2,3-triazole] registered a melting point of 224 to 225 °C. The Inhibition result in series [1] (RMGPb) is “N.I”.
In the case of `OC[C@H]1O[C@@H](c2nnc(-c3ccccc3)o2)[C@H](O)[C@@H](O)[C@@H]1O` [IIIb], the “inhibition at 625 μM” value in series [2] (RMGPb) was 10% at 625 μM [37].
For `OC[C@H]1O[C@@H](c2nnc(-c3ccc4ccccc4c3)o2)[C@H](O)[C@@H](O)[C@@H]1O` [IIIc], the “inhibition at 625 μM” value in series [2] (RMGPb) was 10% at 625 μM [37].
